Tests used:
Type in all cases: in vivo
[1] = system: rice (Oryza sativa); assay: Test C flooded paddy test plant response; details: Flood, 250 g ai/ha; scale of 0 to 100 where 0 is no effect and 100 is complete control; 13 to 15 days
How it was run: (§1)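 Plants grown to 2-leaf stage, flooded 3 cm above soil; compounds applied directly into paddy water, depth kept throughout. Visual rating versus controls after 13 to 15 days in greenhouse, 0 (no effect) to 100 (complete control).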

[2] = system: small-flower umbrella sedge (Cyperus difformis); assay: Test C flooded paddy test plant response; details: Flood, 250 g ai/ha; scale of 0 to 100 where 0 is no effect and 100 is complete control; 13 to 15 days
How it was run: as §1

[3] = system: ducksalad (Heteranthera limosa); assay: Test C flooded paddy test plant response; details: Flood, 250 g ai/ha; scale of 0 to 100 where 0 is no effect and 100 is complete control; 13 to 15 days
How it was run: as §1

[4] = system: barnyardgrass (Echinochloa crus-galli); assay: Test C flooded paddy test plant response; details: Flood, 250 g ai/ha; scale of 0 to 100 where 0 is no effect and 100 is complete control; 13 to 15 days
How it was run: as §1

[5] = system: winter wheat (Triticum aestivum); assay: Test D pre-/postemergence plant response; details: Preemergence; for Plant response rating, Wheat: scale 0 to 100 (0 no effect, 100 complete control)
How it was run: (§2)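 Greenhouse herbicidal response, both pre- and postemergence applications, with solvent/surfactant formulation. Postemergence plants were at 1- to 4-leaf stage. Visual scores 0–100 relative to controls, taken 13 to 15 days later.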

[6] = system: oilseed rape (Brassica napus); assay: Test D pre-/postemergence plant response; details: Preemergence; for Plant response rating, Oilseed Rape: scale 0 to 100 (0 no effect, 100 complete control)
How it was run: as §2

[7] = system: johnsongrass (Sorghum halepense); assay: Test D pre-/postemergence plant response; details: Preemergence; for Plant response rating, Johnsongrass: scale 0 to 100 (0 no effect, 100 complete control)
How it was run: as §2

[8] = system: galium (catchweed bedstraw, Galium aparine); assay: Test D pre-/postemergence plant response; details: Preemergence; for Plant response rating, Galium: scale 0 to 100 (0 no effect, 100 complete control)
How it was run: as §2

[9] = system: ragweed (common ragweed, Ambrosia elatior); assay: Test D pre-/postemergence plant response; details: Preemergence; for Plant response rating, Ragweed: scale 0 to 100 (0 no effect, 100 complete control)
How it was run: as §2

[10] = system: yellow nutsedge (Cyperus esculentus); assay: Test D pre-/postemergence plant response; details: Preemergence; for Plant response rating, Nutsedge, Yellow: scale 0 to 100 (0 no effect, 100 complete control)
How it was run: as §2

[11] = system: wheat (Triticum aestivum); assay: Test B pre-/postemergence plant response; details: 0 to 100 scale, 0 no effect, 100 complete control
How it was run: (§3)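 Greenhouse pots, loam/sand soil; compound formulated with surfactant in non-phytotoxic solvent. Preemergence soil spray and postemergence spray at 1–2 leaf stage run simultaneously. Visual injury, 0–100, about 10 days post-treatment.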

[12] = system: pigweed (Amaranthus retroflexus); assay: Test B pre-/postemergence plant response
How it was run: as §3

[13] = system: corn (Zea mays); assay: Test B pre-/postemergence plant response; details: 0 to 100 scale, 0 no effect, 100 complete control
How it was run: as §3

[14] = system: barnyardgrass (Echinochloa crus-galli); assay: Test B pre-/postemergence plant response
How it was run: as §3

[15] = system: giant foxtail (Setaria faberii); assay: Test B pre-/postemergence plant response
How it was run: as §3

[16] = 31 g ai/ha, Postemergence, 0 to 100 scale, 0 no effect, 100 complete control
[17] = 125 g ai/ha, postemergence, 0 to 100 scale, 0 no effect, 100 complete control
[18] = Preemergence, 31 g ai/ha, 0 to 100 scale (0 no effect, 100 complete control)
[19] = Preemergence, 125 g ai/ha, 0 to 100 scale where 0 is no effect and 100 is complete control

SMILES: COc1cccc(Oc2ncc(Cl)cn2)c1-c1cc(C(F)(F)F)no1 [Compound 104]
- Rice plant response rating [1]: 0
- Sedge, Umbrella plant response rating [2]: 80
- Ducksalad plant response rating [3]: 75
- Barnyardgrass plant response rating [4]: 20
- Plant response rating (scale 0 to 100), Wheat ([5]; 125 g ai/ha): 5
- Plant response rating, Wheat ([5]; 16 g ai/ha): 0
- Plant response rating, Wheat ([5]; 31 g ai/ha): 0
- Plant response rating, Wheat ([5]; 62 g ai/ha): 5
- Plant response rating (scale 0 to 100), Oilseed Rape ([6]; 125 g ai/ha): 50
- Plant response rating, Oilseed Rape ([6]; 16 g ai/ha): 0
- Plant response rating, Oilseed Rape ([6]; 31 g ai/ha): 0
- Plant response rating, Oilseed Rape ([6]; 62 g ai/ha): 30
- Plant response rating (scale 0 to 100), Johnsongrass ([7]; 125 g ai/ha): 65
- Plant response rating, Johnsongrass ([7]; 16 g ai/ha): 5
- Plant response rating, Johnsongrass ([7]; 31 g ai/ha): 20
- Plant response rating, Johnsongrass ([7]; 62 g ai/ha): 15
- Plant response rating (scale 0 to 100), Galium ([8]; 125 g ai/ha): 70
- Plant response rating, Galium ([8]; 16 g ai/ha): 90
- Plant response rating, Galium ([8]; 31 g ai/ha): 80
- Plant response rating, Galium ([8]; 62 g ai/ha): 75
- Plant response rating (scale 0 to 100), Ragweed ([9]; 125 g ai/ha): 60
- Plant response rating, Ragweed ([9]; 16 g ai/ha): 40
- Plant response rating, Ragweed ([9]; 31 g ai/ha): 25
- Plant response rating, Ragweed ([9]; 62 g ai/ha): 55
- Plant response rating (scale 0 to 100), Nutsedge, Yellow ([10]; 125 g ai/ha): 0
- Plant response rating, Nutsedge, Yellow ([10]; 16 g ai/ha): 0
- Plant response rating, Nutsedge, Yellow ([10]; 31 g ai/ha): 0
- Plant response rating, Nutsedge, Yellow ([10]; 62 g ai/ha): 0
- Plant response rating, Wheat ([11]; 31 g ai/ha, Postemergence): 0
- Plant response rating, Wheat ([11]; 125 g ai/ha, postemergence): 10
- Plant response rating, Pigweed [12, 16]: 90
- Plant response rating, Pigweed [12, 17]: 90
- Pigweed plant response rating [12, 18]: 80
- Plant response rating, Pigweed [12, 19]: 100
- Plant response rating, Corn ([13]; 31 g ai/ha, Postemergence): 10
- Plant response rating, Corn ([13]; 125 g ai/ha, postemergence): 30
- Plant response rating, Barnyardgrass [14, 16]: 10
- Plant response rating, Barnyardgrass [14, 17]: 60
- Barnyardgrass plant response rating [14, 18]: 20
- Plant response rating, Barnyardgrass [14, 19]: 80
- Plant response rating, Foxtail, Giant [15, 16]: 20
- Plant response rating, Foxtail, Giant [15, 17]: 80
- Foxtail, Giant plant response rating [15, 18]: 40
- Plant response rating, Foxtail, Giant [15, 19]: 100

— patent US10131652B2, “Pyrimidinyloxy benzene derivatives as herbicides” (E. I. DU PONT DE NEMOURS AND COMPANY, priority 2014, dated 2018)
